Experimental data as given in patent US20240053368A1, “METHOD FOR EVALUATING BLOOD PARAMETERS” (SEDICIDODICI S.R.L., priority 2020, published 2024).

Assays:
[1] = system: platelets (platelet aggregate formation); assay: ex-vivo dynamic evaluation of the coagulation process in a whole-blood sample under flow: platelet aggregate formation; parameters: species or system human; details: mean value, blood of subjects under the therapy, 8-bit acquisition system
From the text: According to some embodiments, the method of the invention comprises the following steps: • a) providing a whole-blood sample taken from a subject and added with an anti-coagulant substance; • b) treating the blood sample of step a) with a solution consisting of fluorescent probes for marking platelets and fibrin capable of binding more or less specifically to platelets and fibrin and emitting fluorescent light on two different emission frequencies and of a recalcification solution of the blood sample. […]
(§1) From a study carried out on healthy subjects not subjected to anticoagulant or antiplatelet therapy (controls), mean values of the parameters calculated as described above were obtained. […]

[2] = system: fibrin (fibrin formation); assay: ex-vivo dynamic evaluation of the coagulation process in a whole-blood sample under flow: fibrin formation; parameters: species or system human; details: mean value
From the text: According to some embodiments, the method of the invention comprises the following steps: • a) providing a whole-blood sample taken from a subject and added with an anti-coagulant substance; • b) treating the blood sample of step a) with a solution consisting of fluorescent probes for marking platelets and fibrin capable of binding more or less specifically to platelets and fibrin and emitting fluorescent light on two different emission frequencies and of a recalcification solution of the blood sample. The two aforesaid solutions can also be combined in a single solution or single reagent; • c) introducing said recalcified blood sample into an analytical device having at least one perfusion chamber, in which at least one wall consists of a transparent material comprising a cytoadhesive substance, the blood sample being made to flow into the perfusion chamber in known and measurable flow conditions; • d) during the blood flow in the perfusion chamber, alternately acquiring at least two series of fluorescence images, so that at least one series of fluorescence images is acquired at an emission wavelength characteristic of the fluorescent probe for platelets and at least one other series of fluorescence images is acquired at another emission wavelength characteristic of the fluorescent probe for fibrin; • e) binarizing the pixels of the acquired images for the platelets and for the fibrin, so as to generate a first curve of area covered by illuminated pixels vs. time (t) for the formation of a platelet aggregate and a second curve of area covered by illuminated pixels vs. time for the fibrin formation; • f) generating a first curve of average fluorescence intensity vs. time for the formation of the platelet aggregate and a second curve of average fluorescence intensity vs. time for the fibrin formation; • the method further comprising at least one of the following steps: • g) generating a first integrated density curve defined as the product of area and fluorescence intensity vs. time for the formation of the platelet aggregate and a second integrated density curve defined as the product of area and fluorescence intensity vs. time for the fibrin formation; • h) generating a curve of particle number vs. time, in which the number of particles is given by the number of platelet aggregates consisting of more than 2 illuminated pixels; • i) generating a curve of particle size vs. time, in which the particle size is given by the average size of the platelet aggregates consisting of more than 2 illuminated pixels; • j) generating values of maximum slope, defined as the relative maximum points of the first derivative function calculated for the curves of the parameter obtained in one or more of steps e), f), g), h) and i); • k) generating values of maximum acceleration, defined as the relative maximum points of the second derivative function calculated for the curves of the parameter obtained in one or more of steps e), f), g), h) and i); • l) generating values of F/P ratio, defined as the ratio of the AUCs of fibrin to the AUCs of the platelets of the parameter obtained in one or more of steps e), f) and g); • the method further comprising the steps of: • m) generating a lag time value representing the fibrin formation time defined as the time corresponding to the first occurrence of five consecutive images in which the value of the measured area related to fibrin is >1% of the maximum peak value of the curve; • n) generating the AUC (Area Under the Curve) values given by the area under the curve of the parameter obtained in one or more of steps e), f), g), h) and i).
as §1

CC(=O)Oc1ccccc1C(=O)O [ASA, acetylsalicylic acid]
Platelets AUC Area ([1]; area under the curve of the area curve): 3.4 ×10^7 | Platelets AUC MGV ([1]; area under the curve of the fluorescence intensity curve): 2.0 ×10^4 | Platelets AUC ID ([1]; area under the curve of the integrated density curve): 3.0 ×10^9 | F/P Area ([2]; AUC Area ratio of fibrin to platelets, subjects under the therapy): 1.0 | F/P ID ([2]; AUC ID ratio of fibrin to platelets, subjects under the therapy): 2.2 | F/P MGV ([2]; AUC MGV ratio of fibrin to platelets, subjects under the therapy): 1.2 | Fibrin AUC Area ([2]; blood of subjects under the therapy, area under the curve of the area curve, 8-bit acquisition system): 3.0 ×10^7 | Fibrin AUC MGV ([2]; blood of subjects under the therapy, area under the curve of the fluorescence intensity curve, 8-bit acquisition system): 2.0 ×10^4 | Fibrin AUC ID ([2]; blood of subjects under the therapy, area under the curve of the integrated density curve, 8-bit acquisition system): 4.3 ×10^9
